#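 Five compound concentrations were applied to cells in 96-well plates for 48 hours; endpoints were derived by simple linear interpolation of the resulting dose-response curve. GI50 marks 50% less growth. TGI denotes the concentration required for complete inhibition of growth.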
# Experiments:
# Test in all cases: NCI tumour cell line growth inhibition, 48 h
# A549 NSCLC = system: A549 NSCLC
# UACC-62 melanoma = system: UACC-62 melanoma
# NCI-H226 lung = system: NCI-H226 lung
# HCT-15 colon = system: HCT-15 colon
# NCI-H23 lung = system: NCI-H23 lung
# OVCAR-5 ovarian = system: OVCAR-5 ovarian
# SNB-19 CNS = system: SNB-19 CNS
# SR leukemia = system: SR leukemia
# HOP-62 NSCLC = system: HOP-62 NSCLC
# MDA-MB-231 breast = system: MDA-MB-231 breast
# LOX IMVI melanoma = system: LOX IMVI melanoma
# DU-145 prostate = system: DU-145 prostate
# MALME-3M melanoma = system: MALME-3M melanoma
# SK-MEL-5 melanoma = system: SK-MEL-5 melanoma
# NCI-H522 lung = system: NCI-H522 lung
# RXF 393 renal = system: RXF 393 renal
# PC-3 prostate = system: PC-3 prostate
# SF-295 CNS = system: SF-295 CNS
# HCT-116 colon = system: HCT-116 colon
# A498 renal = system: A498 renal
# OVCAR-3 ovarian = system: OVCAR-3 ovarian
# T-47D breast = system: T-47D breast
# SF-539 CNS = system: SF-539 CNS
# COLO 205 colon = system: COLO 205 colon
# SW-620 colon = system: SW-620 colon
# HCC-2998 colon = system: HCC-2998 colon
# OVCAR-8 ovarian = system: OVCAR-8 ovarian
# SK-MEL-28 melanoma = system: SK-MEL-28 melanoma
# OVCAR-4 ovarian = system: OVCAR-4 ovarian
# ACHN renal = system: ACHN renal
# SN12C renal = system: SN12C renal
# HS 578T breast = system: HS 578T breast
# SNB-75 CNS = system: SNB-75 CNS
# MOLT-4 leukemia = system: MOLT-4 leukemia
# IGROV1 ovarian = system: IGROV1 ovarian
# HT29 colon = system: HT29 colon
# EKVX NSCLC = system: EKVX NSCLC
# BT-549 breast = system: BT-549 breast
# RPMI-8226 leukemia = system: RPMI-8226 leukemia
# CCRF-CEM leukemia = system: CCRF-CEM leukemia
# MCF7 breast = system: MCF7 breast
# SK-OV-3 ovarian = system: SK-OV-3 ovarian
# 786-0 renal = system: 786-0 renal
# CAKI-1 renal = system: CAKI-1 renal
# NCI-H460 lung = system: NCI-H460 lung
# MDA-MB-435 = system: MDA-MB-435
# K-562 leukemia = system: K-562 leukemia
# SF-268 CNS = system: SF-268 CNS
# UO-31 renal = system: UO-31 renal
# NCI/ADR-RES ovarian = system: NCI/ADR-RES ovarian
# TK-10 renal = system: TK-10 renal
# HOP-92 NSCLC = system: HOP-92 NSCLC
# U251 CNS = system: U251 CNS
# KM12 colon = system: KM12 colon
# SK-MEL-2 melanoma = system: SK-MEL-2 melanoma
# HL-60(TB) leukemia = system: HL-60(TB) leukemia
structure (smiles),measurement,setting,value
CCOc1ccccc1C(=O)/C=C/c1cc2ccccc2[nH]c1=O,GI50,A549 NSCLC,74.1 nM
same,TGI,A549 NSCLC,12400 nM
same,GI50,UACC-62 melanoma,42.3 nM
same,TGI,UACC-62 melanoma,1930 nM
same,GI50,NCI-H226 lung,202 nM
same,TGI,NCI-H226 lung,6490 nM
same,GI50,HCT-15 colon,33.9 nM
same,TGI,HCT-15 colon,1220 nM
same,GI50,NCI-H23 lung,72.9 nM
same,TGI,NCI-H23 lung,1770 nM
same,GI50,OVCAR-5 ovarian,193 nM
same,TGI,OVCAR-5 ovarian,1440 nM
same,GI50,SNB-19 CNS,45.9 nM
same,TGI,SNB-19 CNS,1340 nM
same,GI50,SR leukemia,< 10 nM
same,TGI,SR leukemia,> 100000 nM
same,GI50,HOP-62 NSCLC,67.8 nM
same,TGI,HOP-62 NSCLC,3470 nM
same,GI50,MDA-MB-231 breast,77.4 nM
same,TGI,MDA-MB-231 breast,2010 nM
same,GI50,LOX IMVI melanoma,44.3 nM
same,TGI,LOX IMVI melanoma,1060 nM
same,GI50,DU-145 prostate,38 nM
same,TGI,DU-145 prostate,905 nM
same,GI50,MALME-3M melanoma,23.8 nM
same,TGI,MALME-3M melanoma,1880 nM
same,GI50,SK-MEL-5 melanoma,43.1 nM
same,TGI,SK-MEL-5 melanoma,1310 nM
same,GI50,NCI-H522 lung,30.8 nM
same,TGI,NCI-H522 lung,1830 nM
same,GI50,RXF 393 renal,32.2 nM
same,TGI,RXF 393 renal,340 nM
same,GI50,PC-3 prostate,41.3 nM
same,TGI,PC-3 prostate,2760 nM
same,GI50,SF-295 CNS,31.1 nM
same,TGI,SF-295 CNS,1280 nM
same,GI50,HCT-116 colon,< 22.9 nM
same,TGI,HCT-116 colon,1170 nM
same,GI50,A498 renal,14.7 nM
same,TGI,A498 renal,81.3 nM
same,GI50,OVCAR-3 ovarian,24.5 nM
same,TGI,OVCAR-3 ovarian,108 nM
same,GI50,T-47D breast,271 nM
same,TGI,T-47D breast,19600 nM
same,GI50,SF-539 CNS,29.4 nM
same,TGI,SF-539 CNS,129 nM
same,GI50,COLO 205 colon,37.1 nM
same,TGI,COLO 205 colon,643 nM
same,GI50,SW-620 colon,19.4 nM
same,TGI,SW-620 colon,1160 nM
same,GI50,HCC-2998 colon,126 nM
same,TGI,HCC-2998 colon,654 nM
same,GI50,OVCAR-8 ovarian,50.7 nM
same,TGI,OVCAR-8 ovarian,2080 nM
same,GI50,SK-MEL-28 melanoma,324 nM
same,TGI,SK-MEL-28 melanoma,2160 nM
same,GI50,OVCAR-4 ovarian,144 nM
same,TGI,OVCAR-4 ovarian,6240 nM
same,GI50,ACHN renal,60.3 nM
same,TGI,ACHN renal,1730 nM
same,GI50,SN12C renal,96.1 nM
same,TGI,SN12C renal,1630 nM
same,GI50,HS 578T breast,22.2 nM
same,TGI,HS 578T breast,93.3 nM
same,GI50,SNB-75 CNS,20.9 nM
same,TGI,SNB-75 CNS,76.6 nM
same,GI50,MOLT-4 leukemia,38.5 nM
same,TGI,MOLT-4 leukemia,4430 nM
same,GI50,IGROV1 ovarian,56.4 nM
same,TGI,IGROV1 ovarian,1860 nM
same,GI50,HT29 colon,23.2 nM
same,TGI,HT29 colon,2060 nM
same,GI50,EKVX NSCLC,172 nM
same,TGI,EKVX NSCLC,1990 nM
same,GI50,BT-549 breast,72 nM
same,TGI,BT-549 breast,1410 nM
same,GI50,RPMI-8226 leukemia,28.4 nM
same,TGI,RPMI-8226 leukemia,991 nM
same,GI50,CCRF-CEM leukemia,29 nM
same,TGI,CCRF-CEM leukemia,> 100000 nM
same,GI50,MCF7 breast,35.6 nM
same,TGI,MCF7 breast,1410 nM
same,GI50,SK-OV-3 ovarian,106 nM
same,TGI,SK-OV-3 ovarian,15200 nM
same,GI50,786-0 renal,39.9 nM
same,TGI,786-0 renal,1330 nM
same,GI50,CAKI-1 renal,25.8 nM
same,TGI,CAKI-1 renal,1490 nM
same,GI50,NCI-H460 lung,33.2 nM
same,TGI,NCI-H460 lung,349 nM
same,GI50,MDA-MB-435,< 10 nM
same,TGI,MDA-MB-435,13.9 nM
same,GI50,K-562 leukemia,< 10 nM
same,TGI,K-562 leukemia,> 100000 nM
same,GI50,SF-268 CNS,86 nM
same,TGI,SF-268 CNS,1850 nM
same,GI50,UO-31 renal,61.1 nM
same,TGI,UO-31 renal,1590 nM
same,GI50,NCI/ADR-RES ovarian,23.4 nM
same,TGI,NCI/ADR-RES ovarian,14400 nM
same,GI50,TK-10 renal,438 nM
same,TGI,TK-10 renal,2930 nM
same,GI50,HOP-92 NSCLC,77.8 nM
same,TGI,HOP-92 NSCLC,1410 nM
same,GI50,U251 CNS,39.7 nM
same,TGI,U251 CNS,1330 nM
same,GI50,KM12 colon,35.5 nM
same,TGI,KM12 colon,570 nM
same,GI50,SK-MEL-2 melanoma,65.7 nM
same,TGI,SK-MEL-2 melanoma,3020 nM
same,GI50,HL-60(TB) leukemia,13 nM
same,TGI,HL-60(TB) leukemia,59 nM

# From PubChem BioAssay (NCI)
